# Source: patent publication US8586747B2, “3,3-dimethyl tetrahydroquinoline derivatives” (Hoffmann-La Roche Inc., priority 2010, dated 2013)
# Tested on: AMP-activated protein kinase (AMPK)
# Test: ADP Quest assay for AMPK activators
# Format: biochemical
# Design: key: fold AMPK activation with vs without activator at 30 µM
# Settings: fold of AMPK activation to phosphorylate SAMS peptide without and with an activator at the concentration of 30 µM
# Procedure: ADP Quest™ Assay for AMPK Activators
# This method evaluates AMP-activated protein kinase (AMPK) activity through detecting the accumulation of ADP product using an ADP Quest kit and determining the E30 values of the small molecular AMPK activators. ADP Quest kit (DiscoveRx, Fremont, Calif.) is stored at −20° C. before use. Before an experiment, thaw the kit (include assay buffer, ADP standard solution, reagent A and reagent B) and equilibrate to room temperature. Dispense the ADP Quest reagents into single-use aliquots and store at −20° C. The compound concentrations typically range from 0 µM to 100 µM by 2-fold dilution. AMP concentrations range from […] to 1 mM as the reference control. In an assay, thaw and equilibrate the assay buffer, reagent A and reagent B to room temperature for 30 minutes prior to use. Mix ATP, SAMS peptide substrate and compound, and place them into the 384-well assay plate. Add reagent A and B based on the assay kit protocol. Incubate the assay plate at room temperature for 30 minutes after addition the mixture followed by the addition of AMPK protein (Invitrogen, CA) to initiate the AMPK phosphorylation reaction. At the same time, reactions with AMPK activator AMP in the absence of enzyme is included as blank control. The reaction fluorescence signal is monitored and recorded on Envision in kinetic mode with the excitation wavelength of 530 nm and emission wavelength of 590 nm. The E30 value, defined as the fold of AMPK activation to phosphorylate SAMS peptide without and with an activator at the concentration of 30 µM, is calculated and analyzed using Prism 5.0.
row,SMILES,E30
1,"CC1(C)Cc2cc(C(=O)O)ccc2NC1c1ccccc1NS(=O)(=O)c1cccc(F)c1 (stereo not shown) [Example 222, 2-(2-(3-Fluorophenylsulfonamido)phenyl)-3,3-dimethyl-1,2,3,4-tetrahydroquinoline-6-carboxylic acid]",2.09
2,"CC1(C)Cc2cc(C(=O)O)ccc2NC1c1ccc(F)c(NC(=O)c2ccccc2)c1 (stereo not shown) [Example 184, 2-(3-Benzamido-4-fluorophenyl)-3,3-dimethyl-1,2,3,4-tetrahydroquinoline-6-carboxylic acid]",1.24
3,"CC1(C)Cc2cc(C(=O)O)ccc2NC1c1cc(F)cc(N2CCNCC2)c1 (stereo not shown) [Example 71, 2-(3-Fluoro-5-piperazin-1-yl-phenyl)-3,3-dimethyl-1,2,3,4-tetrahydro-quinoline-6-carboxylic acid]",1.22
4,"CC1(C)Cc2cc(C(=O)O)ccc2NC1c1cccc(NC(=O)c2ccc(F)cc2)c1 (stereo not shown) [Example 20, 2-[3-(4-Fluoro-benzoylamino)-phenyl]-3,3-dimethyl-1,2,3,4-tetrahydro-quinoline-6-carboxylic acid]",1.25
5,"CC1(C)Cc2cc(C(=O)O)ccc2NC1c1cc(F)cc(N2CCCC2=O)c1 (stereo not shown) [Example 76, 2-[3-Fluoro-5-(2-oxo-pyrrolidin-1-yl)-phenyl]-3,3-dimethyl-1,2,3,4-tetrahydro-quinoline-6-carboxylic acid]",1.47
6,"CC1(C)Cc2cc(C(=O)O)ccc2NC1c1cccc(NS(C)(=O)=O)c1 (stereo not shown) [Example 201, 3,3-Dimethyl-2-(3-(methylsulfonamido)phenyl)-1,2,3,4-tetrahydroquinoline-6-carboxylic acid]",1.42
7,"CC(=O)Nc1ccc(S(=O)(=O)Nc2cccc(C3Nc4ccc(C(=O)O)cc4CC3(C)C)c2)cc1 (stereo not shown) [Example 169, 2-(3-(4-Acetamidophenylsulfonamido)phenyl)-3,3-dimethyl-1,2,3,4-tetrahydroquinoline-6-carboxylic acid]",1.38
8,"CC(C)NS(=O)(=O)c1cccc(C2Nc3ccc(C(=O)O)cc3CC2(C)C)c1 (stereo not shown) [Example 221, 2-(3-(N-isopropylsulfamoyl)phenyl)-3,3-dimethyl-1,2,3,4-tetrahydroquinoline-6-carboxylic acid]",1.33
9,"CCc1nnnn1-c1cccc(C2Nc3ccc(C(=O)O)cc3CC2(C)C)c1 (stereo not shown) [Example 148, 2-[3-(5-Ethyl-tetrazol-1-yl)-phenyl]-3,3-dimethyl-1,2,3,4-tetrahydro-quinoline-6-carboxylic acid]",1.3
10,"CC1(C)Cc2cc(C(=O)O)ccc2NC1c1cccc(C(=O)NS(=O)(=O)C2CC2)c1 (stereo not shown) [Example 176, 2-(3-(Cyclopropylsulfonylcarbamoyl)-phenyl)-3,3-dimethyl-1,2,3,4-tetrahydroquinoline-6-carboxylic acid]",1.44
11,"CCN(CC)C(=O)Nc1cccc(C2Nc3ccc(C(=O)O)cc3CC2(C)C)c1 (stereo not shown) [Example 36, 2-[3-(3,3-Diethyl-ureido)-phenyl}-3,3-dimethyl-1,2,3,4-tetrahydro-quinoline-6-carboxylic acid]",1.37
12,"CC1(C)Cc2cc(C(=O)NS(C)(=O)=O)ccc2NC1c1cccc(NC(=O)c2cnccn2)c1 (stereo not shown) [Example 11, Pyrazine-2-carboxylic acid [3-(6-methanesulfonylaminocarbonyl-3,3-dimethyl-1,2,3,4-tetrahydro-quinolin-2-yl)-phenyl]-amide]",1.25
13,"CC1(C)Cc2cc(C(=O)O)ccc2NC1c1cccc(N2CC(=O)NCC2=O)c1 (stereo not shown) [Example 18, 2-[3-(2,5-Dioxo-piperazin-1-yl)-phenyl]-3,3-dimethyl-1,2,3,4-tetrahydro-quinoline-6-carboxylic acid]",1.41

# The remaining lines, values ahead:
row,E30,SMILES
1,1.32,"CC1(C)Cc2cc(C(=O)O)ccc2NC1c1cccc(NC(=O)c2cnccn2)c1 (stereo not shown) [Example 5, 3,3-Dimethyl-2-{3-[(pyrazine-2-carbonyl)-amino]-phenyl}-1,2,3,4-tetrahydro-quinoline-6-carboxylic acid]"
2,1.2,"CC1(C)Cc2cc(C(=O)NS(C)(=O)=O)cc(Cl)c2NC1c1cccc(N2CCOCC2)c1 (stereo not shown) [Example 115, N-[8-Chloro-3,3-dimethyl-2-(3-morpholin-4-yl-phenyl)-1,2,3,4-tetrahydro-quinoline-6-carbonyl]-methanesulfonamide]"
3,1.31,"CC1(C)Cc2cc(C(=O)O)ccc2NC1c1ccc(NS(=O)(=O)c2ccc(F)cc2)cc1 (stereo not shown) [Example 181, 2-(4-(4-Fluorophenylsulfonamido)phenyl)-3,3-dimethyl-1,2,3,4-tetrahydroquinoline-6-carboxylic acid]"
4,1.2,"CC1(C)Cc2c(C(=O)NS(=O)(=O)C3CC3)ccc(Cl)c2NC1c1cccc(N2CCOCC2)c1 (stereo not shown) [Example 133, Cyclopropanesulfonic acid [8-chloro-3,3-dimethyl-2-(3-morpholin-4-yl-phenyl)-1,2,3,4-tetrahydro-quinoline-5-carbonyl]-amide]"
5,1.23,"CC1(C)Cc2cc(C(=O)NS(=O)(=O)C3CC3)ccc2NC1c1cccc(N2C(=O)OC[C@@H]2Cc2ccccc2)c1 (stereo partly drawn) [Example 132, Cyclopropanesulfonic acid {2-[3-((S)-4-benzyl-2-oxo-oxazolidin-3-yl)-phenyl]-3,3-dimethyl-1,2,3,4-tetrahydro-quinoline-6-carbonyl}-amide]"
6,1.66,"CC(C)(C)c1ccc(-c2cccc(C3Nc4ccc(F)c(C(=O)NS(=O)(=O)C5CC5)c4CC3(C)C)c2)cc1 (stereo not shown) [Example 156, Cyclopropanesulfonic acid [2-(4′-tert-butyl-biphenyl-3-yl)-6-fluoro-3,3-dimethyl-1,2,3,4-tetrahydro-quinoline-5-carbonyl]-amide]"
7,1.3,"CC1(C)Cc2cc(C(=O)O)ccc2NC1c1ccc(F)c(NC(=O)c2ccc(F)cc2Cl)c1 (stereo not shown) [Example 190, 2-(3-(2-Chloro-4-fluorobenzamido)-4-fluorophenyl)-3,3-dimethyl-1,2,3,4-tetrahydroquinoline-6-carboxylic acid]"
8,2.25,"CC(C)(C)c1ccc(-c2cc(F)cc(C3Nc4ccc(C(=O)NS(C)(=O)=O)cc4CC3(C)C)c2)cc1 (stereo not shown) [Example 49, N-[2-(4′-tert-Butyl-5-fluoro-biphenyl-3-yl)-3,3-dimethyl-1,2,3,4-tetrahydro-quinoline-6-carbonyl]-methanesulfonamide]"
9,1.22,"CC1(C)Cc2cc(C(=O)O)ccc2NC1c1cccc(NC(=O)c2ccccc2)c1 (stereo not shown) [Example 12, 2-(3-Benzoylamino-phenyl)-3,3-dimethyl-1,2,3,4-tetrahydro-quinoline-6-carboxylic acid]"
10,1.46,"CC(C)(C)c1ccc(-c2cncc(C3Nc4ccc(C(=O)O)cc4CC3(C)C)c2)cc1 (stereo not shown) [Example 46, 2-[5-(4-tert-Butyl-phenyl)-pyridin-3-yl]-3,3-dimethyl-1,2,3,4-tetrahydro-quinoline-6-carboxylic acid]"
11,1.46,"CC1(C)Cc2cc(C(=O)NS(=O)(=O)C3CC3)ccc2NC1c1cccc(N2CCNCC2)c1 (stereo not shown) [Example 97, Cyclopropanesulfonic acid [3,3-dimethyl-2-(3-piperazin-1-yl-phenyl)-1,2,3,4-tetrahydro-quinoline-6-carbonyl]-amide]"
12,1.3,"CC1CN(c2cccc(C3Nc4ccc(C(=O)O)cc4CC3(C)C)c2)CC(C)O1 (stereo not shown) [Example 106, 2-[3-(2,6-Dimethyl-morpholin-4-yl)-phenyl]-3,3-dimethyl-1,2,3,4-tetrahydro-quinoline-6-carboxylic acid]"
13,1.54,"CC(C)C(=O)Nc1cc(C2Nc3ccc(C(=O)O)cc3CC2(C)C)ccc1F (stereo not shown) [Example 174, 2-(4-Fluoro-3-isobutyramidophenyl)-3,3-dimethyl-1,2,3,4-tetrahydroquinoline-6-carboxylic acid]"
14,1.19,"CC1(C)Cc2cc(C(=O)NS(C)(=O)=O)ccc2NC1c1ccc(N2CCOCC2)cc1 (stereo not shown) [Example 74, N-[3,3-Dimethyl-2-(4-morpholin-4-yl-phenyl)-1,2,3,4-tetrahydro-quinoline-6-carbonyl]-methanesulfonamide]"
15,1.3,"Cc1ccc(N2CCN(c3cccc(C4Nc5ccc(C(=O)O)cc5CC4(C)C)c3)CC2)c(C)c1 (stereo not shown) [Example 89, 2-{3-[4-(2,4-Dimethyl-phenyl)-piperazin-1-yl]-phenyl}-3,3-dimethyl-1,2,3,4-tetrahydro-quinoline-6-carboxylic acid]"
16,1.61,"CC1(C)Cc2cc(C(=O)NS(C)(=O)=O)ccc2NC1c1cc(F)cc(N2CCCC2)c1 (stereo not shown) [Example 61, N-[2-(3-Fluoro-5-pyrrolidin-1-yl-phenyl)-3,3-dimethyl-1,2,3,4-tetrahydro-quinoline-6-carbonyl]-methanesulfonamide]"
17,1.26,"CC1(C)Cc2cc(C(=O)NS(C)(=O)=O)ccc2NC1c1cccc(N2C(=O)OC[C@H]2Cc2ccccc2)c1 (stereo partly drawn) [Example 128, N-{2-[3-((R)4-Benzyl-2-oxo-oxazolidin-3-yl)-phenyl]-3,3-dimethyl-1,2,3,4-tetrahydro-quinoline-6-carbonyl}-methanesulfonamide]"
18,1.28,"CC1(C)Cc2cc(C(=O)O)ccc2NC1c1ccccc1NC(=O)c1ccccn1 (stereo not shown) [Example 232, 3,3-Dimethyl-2-(2-(picolinamido)phenyl)-1,2,3,4-tetrahydroquinoline-6-carboxylic acid]"
